Measured values from PMC12114619, “Nifuroxazide and 4-Hydroxybenzhydrazone Derivatives as New Antiparasitic (Trypanosoma cruzi and Leishmania mexicana) and Anti-Mycobacterium tuberculosis Agents” (Pharmaceutics, 2025).
Converted amounts (≈) assume the structure as drawn.

System: T. cruzi NINOA (MHOM/MX/1994/NINOA) strain epimastigotes
Experiment: Trypanocidal activity, T. cruzi epimastigotes, NINOA strain (resazurin)
Assay type: cell-based, Trypanosoma cruzi
Conditions: 48 h

| Structure (SMILES) | IC50 T. cruzi NINOA | IC50 |
| --- | --- | --- |
| O=C(N/N=C/c1ccc(F)cc1)c1ccc(O)cc1 [Nfz-15] | loss of trypanocidal activity | – |
| O=C(N/N=C/c1ccc2c(c1)OCCO2)c1ccc(O)cc1 [Nfz-21] | loss of the activity | – |
| COc1ccc(/C=N/NC(=O)c2ccc(O)cc2)cc1 [Nfz-11] | – | 28.2 ± 1.4 µM |
| O=C(N/N=C/c1ccc(-c2ccccc2)cc1)c1ccc(O)cc1 [Nfz-22] | – | 6.87 ± 1.2 µM |
| O=C(N/N=C/c1ccccc1)c1ccc(O)cc1 [Nfz-6] | inactive | – |
| Cn1cccc1/C=N/NC(=O)c1ccc(O)cc1 [Nfz-5] | inactivity | – |
| COc1cccc(/C=N/NC(=O)c2ccc(O)cc2)c1OC [Nfz-13] | – | 63.1 ± 1.4 µM |
| O=C(N/N=C/c1ccc2ccccc2c1)c1ccc(O)cc1 [Nfz-20] | loss of the activity | – |
| O=C(N/N=C/c1cc2c(cc1[N+](=O)[O-])OCO2)c1ccc(O)cc1 [Nfz-23] | loss of the activity | – |

Same assay, conditions: Trypanosoma cruzi, 48 h

| Structure (SMILES) | IC50 |
| --- | --- |
| O=C(N/N=C/c1ccc(F)cc1)c1ccc(O)cc1 [Nfz-15] | > 100 µM |
| O=C(N/N=C/c1ccc2c(c1)OCCO2)c1ccc(O)cc1 [Nfz-21] | > 100 µM |
| COc1ccc(/C=N/NC(=O)c2ccc(O)cc2)cc1 [Nfz-11] | 28.2 µM |
| O=C(N/N=C/c1ccc(-c2ccccc2)cc1)c1ccc(O)cc1 [Nfz-22] | 6.8 µM |
| O=C(N/N=C/c1ccccc1)c1ccc(O)cc1 [Nfz-6] | > 100 µM |
| Cn1cccc1/C=N/NC(=O)c1ccc(O)cc1 [Nfz-5] | > 100 µM |
| COc1cccc(/C=N/NC(=O)c2ccc(O)cc2)c1OC [Nfz-13] | > 60 µM |
| O=C(N/N=C/c1ccc2ccccc2c1)c1ccc(O)cc1 [Nfz-20] | > 100 µM |
| O=C(N/N=C/c1cc2c(cc1[N+](=O)[O-])OCO2)c1ccc(O)cc1 [Nfz-23] | > 100 µM |

System: T. cruzi strain A1 epimastigotes
Experiment: Trypanocidal activity, T. cruzi epimastigotes, A1 strain (resazurin)
Assay type: cell-based, Trypanosoma cruzi
Conditions: 48 h

| Structure (SMILES) | IC50 |
| --- | --- |
| O=C(N/N=C/c1ccc(F)cc1)c1ccc(O)cc1 [Nfz-15] | 32.6 ± 2.8 µM |
| COc1ccc(/C=N/NC(=O)c2ccc(O)cc2)cc1 [Nfz-11] | 18.2 ± 1.4 µM |
| O=C(N/N=C/c1ccccc1)c1ccc(O)cc1 [Nfz-6] | 74.4 ± 4.4 µM |
| Cn1cccc1/C=N/NC(=O)c1ccc(O)cc1 [Nfz-5] | 78.5 ± 4.7 µM |
| O=C(N/N=C/c1ccc2ccccc2c1)c1ccc(O)cc1 [Nfz-20] | 24.5 ± 2 µM |
| O=C(N/N=C/c1cc2c(cc1[N+](=O)[O-])OCO2)c1ccc(O)cc1 [Nfz-23] | 13.5 ± 3.4 µM |

Same assay, conditions: Trypanosoma cruzi, 48 h

| Structure (SMILES) | IC50 |
| --- | --- |
| O=C(N/N=C/c1ccc(F)cc1)c1ccc(O)cc1 [Nfz-15] | < 50 µM |
| O=C(N/N=C/c1ccc2c(c1)OCCO2)c1ccc(O)cc1 [Nfz-21] | 49 ± 2.1 µM |
| COc1ccc(/C=N/NC(=O)c2ccc(O)cc2)cc1 [Nfz-11] | 18.1 µM |
| O=C(N/N=C/c1ccc(-c2ccccc2)cc1)c1ccc(O)cc1 [Nfz-22] | > 100 µM |
| O=C(N/N=C/c1ccccc1)c1ccc(O)cc1 [Nfz-6] | > 70 µM |
| Cn1cccc1/C=N/NC(=O)c1ccc(O)cc1 [Nfz-5] | > 100 µM |
| COc1cccc(/C=N/NC(=O)c2ccc(O)cc2)c1OC [Nfz-13] | > 100 µM |
| O=C(N/N=C/c1ccc2ccccc2c1)c1ccc(O)cc1 [Nfz-20] | 24.4 µM |
| O=C(N/N=C/c1cc2c(cc1[N+](=O)[O-])OCO2)c1ccc(O)cc1 [Nfz-23] | 13.5 µM |

System: L. mexicana MNYC/BZ/62/M379 promastigotes
Experiment: Leishmanicidal activity, L. mexicana promastigotes, M379 strain (MTT)
Assay type: cell-based, Leishmania mexicana
Conditions: 48 h
Protocol: (§1) For leishmanicidal assays, the reference strain (MNYC/BZ/62/M379) and the isolate (MHOM/MX/2017/UABJO17FCQEPS) of L. mexicana were used. Promastigotes were cultured in RPMI 1640 medium supplemented with 10% FBS, 100 U/mL penicillin-100 […] streptomycin, and glutamine (2 mM). 100 µL parasites (5 × 10^5/mL) were added in a 96-well plate, and 100 µL of appropriate concentrations (0.78 to 200 µM) of each sample dissolved in DMSO and incubated for 48 h at 26 °C. Wells containing promastigotes with DMSO 0.2% were used as a negative control, and the reference drug glucantime was included as the positive control. The 3-(4,5-Dimethylthiazol-2-yl)-2,5-diphenyltetrazolium bromide (MTT) was used to measure metabolic activity. The IC50 values were calculated with the probit statistical tool. All samples were evaluated in triplicate in three independent experiments.

| Structure (SMILES) | IC50 |
| --- | --- |
| O=C(N/N=C/c1ccc(F)cc1)c1ccc(O)cc1 [Nfz-15] | 35.1 ± 4.7 µM |
| O=C(N/N=C/c1ccccc1)c1ccc(O)cc1 [Nfz-6] | 94.22 ± 0.9 µM |
| Cn1cccc1/C=N/NC(=O)c1ccc(O)cc1 [Nfz-5] | 5.25 ± 5.8 µM |
| O=C(N/N=C/c1ccc2ccccc2c1)c1ccc(O)cc1 [Nfz-20] | 28.4 ± 2.8 µM |
| O=C(N/N=C/c1cc2c(cc1[N+](=O)[O-])OCO2)c1ccc(O)cc1 [Nfz-23] | 16 ± 2 µM |

Same assay, conditions: Leishmania mexicana, 48 h

| Structure (SMILES) | IC50 |
| --- | --- |
| O=C(N/N=C/c1ccc(F)cc1)c1ccc(O)cc1 [Nfz-15] | ~30 µM |
| O=C(N/N=C/c1ccc2c(c1)OCCO2)c1ccc(O)cc1 [Nfz-21] | 71.5 ± 4.9 µM |
| COc1ccc(/C=N/NC(=O)c2ccc(O)cc2)cc1 [Nfz-11] | > 200 µM |
| O=C(N/N=C/c1ccc(-c2ccccc2)cc1)c1ccc(O)cc1 [Nfz-22] | > 200 µM |
| O=C(N/N=C/c1ccccc1)c1ccc(O)cc1 [Nfz-6] | > 90 µM |
| Cn1cccc1/C=N/NC(=O)c1ccc(O)cc1 [Nfz-5] | 5.2 µM |
| COc1cccc(/C=N/NC(=O)c2ccc(O)cc2)c1OC [Nfz-13] | 162 ± 6.9 µM |
| O=C(N/N=C/c1ccc2ccccc2c1)c1ccc(O)cc1 [Nfz-20] | < 30 µM |
| O=C(N/N=C/c1cc2c(cc1[N+](=O)[O-])OCO2)c1ccc(O)cc1 [Nfz-23] | < 20 µM |

System: L. mexicana MHOM/MX/2017/UABJO17FCQEPS promastigotes
Experiment: Leishmanicidal activity, L. mexicana promastigotes, FCQEPS isolate (MTT)
Assay type: cell-based, Leishmania mexicana
Conditions: Leishmania mexicana, 48 h, FCQEPS strain
Protocol: as §1

| Structure (SMILES) | IC50 |
| --- | --- |
| O=C(N/N=C/c1ccc(F)cc1)c1ccc(O)cc1 [Nfz-15] | 102 ± 2.7 µM |
| O=C(N/N=C/c1ccc2c(c1)OCCO2)c1ccc(O)cc1 [Nfz-21] | > 200 µM |
| COc1ccc(/C=N/NC(=O)c2ccc(O)cc2)cc1 [Nfz-11] | > 200 µM |
| O=C(N/N=C/c1ccc(-c2ccccc2)cc1)c1ccc(O)cc1 [Nfz-22] | 133 ± 1.4 µM |
| O=C(N/N=C/c1ccccc1)c1ccc(O)cc1 [Nfz-6] | > 200 µM |
| Cn1cccc1/C=N/NC(=O)c1ccc(O)cc1 [Nfz-5] | > 200 µM |
| COc1cccc(/C=N/NC(=O)c2ccc(O)cc2)c1OC [Nfz-13] | 124.5 ± 1.1 µM |
| O=C(N/N=C/c1ccc2ccccc2c1)c1ccc(O)cc1 [Nfz-20] | > 200 µM |
| O=C(N/N=C/c1cc2c(cc1[N+](=O)[O-])OCO2)c1ccc(O)cc1 [Nfz-23] | > 200 µM |

System: M. tuberculosis H37Rv (ATCC 27294)
Experiment: Anti-Mycobacterium activity, microplate Alamar Blue Assay (MABA)
Assay type: cell-based, Mycobacterium tuberculosis
Conditions: Mycobacterium tuberculosis, H37Rv strain, minimum concentration achieving 90% inhibition
Protocol: The reference strain H37Rv (ATCC 27294) of M. tuberculosis was utilized to assess anti-M. tuberculosis activity using the microplate Alamar Blue Assay (MABA), as previously reported. Samples underwent evaluation in triplicate independent experiments. Isoniazid, rifampicin, moxifloxacin, and linezolid were included as reference drugs, and the minimum drug concentration that achieved 90% inhibition was recorded as the minimum inhibitory concentration (MIC).

| Structure (SMILES) | MIC |
| --- | --- |
| O=C(N/N=C/c1ccc(F)cc1)c1ccc(O)cc1 [Nfz-15] | > 100 µg/mL |
| O=C(N/N=C/c1ccc2c(c1)OCCO2)c1ccc(O)cc1 [Nfz-21] | 68.7 µg/mL (≈ 230 µM) |
| COc1ccc(/C=N/NC(=O)c2ccc(O)cc2)cc1 [Nfz-11] | > 100 µg/mL |
| O=C(N/N=C/c1ccc(-c2ccccc2)cc1)c1ccc(O)cc1 [Nfz-22] | > 100 µg/mL |
| O=C(N/N=C/c1ccccc1)c1ccc(O)cc1 [Nfz-6] | > 100 µg/mL |
| Cn1cccc1/C=N/NC(=O)c1ccc(O)cc1 [Nfz-5] | > 100 µg/mL |
| COc1cccc(/C=N/NC(=O)c2ccc(O)cc2)c1OC [Nfz-13] | 158 µg/mL (≈ 525 µM) |
| O=C(N/N=C/c1ccc2ccccc2c1)c1ccc(O)cc1 [Nfz-20] | > 100 µg/mL |
| O=C(N/N=C/c1cc2c(cc1[N+](=O)[O-])OCO2)c1ccc(O)cc1 [Nfz-23] | > 100 µg/mL |

System: not listed separately
Experiment: Cytotoxicity on macrophages (MTT)
Assay type: cell-based, mouse
Conditions: mouse, Cytotoxicity (CC50) Macrophages J774.2
Protocol: Cytotoxicity was assessed on J774.2 mouse macrophage cells (ATCC® TIB-67, ATCC, Manassas, VA, USA). Cells were cultured in RPMI medium supplemented with 10% SFB, 100 U µg/mL penicillin-100 mg/mL streptomycin, and glutamine (2 mM) at 37 °C and in a 5% CO2 atmosphere. A known concentration of cells (1 × 10^6/mL) was incubated with the compounds at different concentrations (0.78 to 200 µM) for 48 h at 37 °C in a CO2 atmosphere (5%). Wells containing cells treated with 0.2% DMSO were used as a negative control. MTT was employed to evaluate the metabolic activity. Next, the cell viability was calculated (%), and the cytotoxic concentration (CC50) was determined with probit analysis. All samples were evaluated in triplicate in three independent experiments.

| Structure (SMILES) | CC50 at 48 h |
| --- | --- |
| O=C(N/N=C/c1ccc(F)cc1)c1ccc(O)cc1 [Nfz-15] | 74 ± 3.4 µM |
| O=C(N/N=C/c1ccc2c(c1)OCCO2)c1ccc(O)cc1 [Nfz-21] | > 100 µM |
| COc1ccc(/C=N/NC(=O)c2ccc(O)cc2)cc1 [Nfz-11] | 46.6 ± 4.9 µM |
| O=C(N/N=C/c1ccc(-c2ccccc2)cc1)c1ccc(O)cc1 [Nfz-22] | 43.5 ± 2.5 µM |
| O=C(N/N=C/c1ccccc1)c1ccc(O)cc1 [Nfz-6] | 28.8 ± 1.5 µM |
| Cn1cccc1/C=N/NC(=O)c1ccc(O)cc1 [Nfz-5] | 21.9 ± 4.4 µM |
| COc1cccc(/C=N/NC(=O)c2ccc(O)cc2)c1OC [Nfz-13] | > 100 µM |
| O=C(N/N=C/c1ccc2ccccc2c1)c1ccc(O)cc1 [Nfz-20] | 88.3 ± 3.9 µM |
| O=C(N/N=C/c1cc2c(cc1[N+](=O)[O-])OCO2)c1ccc(O)cc1 [Nfz-23] | 68.9 ± 6.6 µM |
